From PubChem BioAssay AID330 (DTP/NCI, 2004)
Several values for one entry are separate records, joined by “and”; a condition that tells them apart may be missing. Equal entries are not always repeated. Inconclusive results and toxic doses are left out. The calls were made as follows: active = survival T/C of 150% or more; inactive = T/C below 125% in these data.

Tested on: P388 leukemia ip, CD2F1 mice, survival T/C
Test: NCI In Vivo Anticancer Drug Screen. Data for tumor model P388 Leukemia (intraperitoneal) in CD2F1 (CDF1) mice
Settings: endpoint: median survival time, higher = longer survival
Method in brief: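 Mice carrying the transplanted tumor received test compound or vehicle. Survival was recorded in each group, and the value is the treated-group measurement divided by that of the vehicle-treated control group.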

[1] = dose: 60.0 mg/kg/injection, schedule: Q01DX005 (ip), vehicle: saline with Tween-80
[2] = dose: 120.0 mg/kg/injection, schedule: Q01DX005 (ip), vehicle: saline with Tween-80
[3] = dose: 240.0 mg/kg/injection, schedule: Q01DX005 (ip), vehicle: saline with Tween-80
[4] = dose: 50.0 mg/kg/injection, schedule: Q01DX009 (ip), vehicle: saline with Tween-80
[5] = dose: 100.0 mg/kg/injection, schedule: Q01DX009 (ip), vehicle: saline with Tween-80
[6] = dose: 200.0 mg/kg/injection, schedule: Q01DX009 (ip), vehicle: saline with Tween-80
[7] = dose: 120.0 mg/kg/injection, schedule: Q01DX005 (ip), vehicle: Klucel (hydroxypropylcellulose) (HPC)
[8] = dose: 25.0 mg/kg/injection, schedule: Q01DX009 (ip), vehicle: saline
[9] = dose: 50.0 mg/kg/injection, schedule: Q01DX009 (ip), vehicle: saline
[10] = dose: 100.0 mg/kg/injection, schedule: Q01DX009 (ip), vehicle: saline
[11] = dose: 200.0 mg/kg/injection, schedule: Q01DX009 (ip), vehicle: saline
[12] = dose: 100.0 mg/kg/injection, schedule: Q04DX003 (ip), vehicle: saline with Tween-80
[13] = dose: 200.0 mg/kg/injection, schedule: Q04DX003 (ip), vehicle: saline with Tween-80
[14] = dose: 400.0 mg/kg/injection, schedule: Q04DX003 (ip), vehicle: saline with Tween-80

Measured: T/C

Cc1cc2oc(=O)c3c(c2c(O)c1CN1CCCC1)CCCC3
inactive: dose: 16.0 mg/kg/injection, schedule: Q01DX009 (ip), vehicle: Klucel (hydroxypropylcellulose) (HPC) 97 % of control | dose: 32.0 mg/kg/injection, schedule: Q01DX009 (ip), vehicle: Klucel (hydroxypropylcellulose) (HPC) 101 % of control | dose: 64.0 mg/kg/injection, schedule: Q01DX009 (ip), vehicle: Klucel (hydroxypropylcellulose) (HPC) 103 % of control | dose: 128.0 mg/kg/injection, schedule: Q01DX009 (ip), vehicle: Klucel (hydroxypropylcellulose) (HPC) 97 % of control

CSC(=Nc1cccc(C)c1)NC#N
inactive: dose: 50.0 mg/kg/injection, schedule: Q01DX009 (ip), vehicle: Klucel (hydroxypropylcellulose) (HPC) 103 % of control | dose: 100.0 mg/kg/injection, schedule: Q01DX009 (ip), vehicle: Klucel (hydroxypropylcellulose) (HPC) 106 % of control | dose: 200.0 mg/kg/injection, schedule: Q01DX009 (ip), vehicle: Klucel (hydroxypropylcellulose) (HPC) 105 % of control

CCCCOc1ccc(NN=O)cn1
inactive: dose: 3.12 mg/kg/injection, schedule: Q01DX009 (ip), vehicle: water 106 % of control | dose: 6.25 mg/kg/injection, schedule: Q01DX009 (ip), vehicle: water 92 % of control | dose: 12.5 mg/kg/injection, schedule: Q01DX009 (ip), vehicle: water 99 % of control | dose: 25.0 mg/kg/injection, schedule: Q01DX009 (ip), vehicle: water 93 % of control | dose: 50.0 mg/kg/injection, schedule: Q01DX009 (ip), vehicle: water 92 % of control and 97 % of control | dose: 100.0 mg/kg/injection, schedule: Q01DX009 (ip), vehicle: water 97 % of control | dose: 200.0 mg/kg/injection, schedule: Q01DX009 (ip), vehicle: water 101 % of control

Cc1c(C)c(Cl)c(C)c(C)c1Cl
inactive: dose: 5.0 mg/kg/injection, schedule: Q01DX009 (ip), vehicle: saline with Tween-80 95 % of control | dose: 10.0 mg/kg/injection, schedule: Q01DX009 (ip), vehicle: saline with Tween-80 100 % of control | dose: 20.0 mg/kg/injection, schedule: Q01DX009 (ip), vehicle: saline with Tween-80 100 % of control

COC(=O)CCC(=O)Nc1ccccc1C(F)(F)F
inactive: [1] 102 % of control | [2] 108 % of control | [3] 107 % of control

Cc1nnc2sc(C(F)(F)F)nn12
inactive: dose: 50.0 mg/kg/injection, schedule: Q01DX001 (ip), vehicle: Klucel (hydroxypropylcellulose) (HPC) 99 % of control | dose: 100.0 mg/kg/injection, schedule: Q01DX001 (ip), vehicle: Klucel (hydroxypropylcellulose) (HPC) 98 % of control | dose: 200.0 mg/kg/injection, schedule: Q01DX001 (ip), vehicle: Klucel (hydroxypropylcellulose) (HPC) 101 % of control

CC(C)OC1CC(C)(C)c2c(-c3ccccc3)nn(-c3ccccc3)c2O1 (stereo unspecified)
inactive: [4] 109 % of control | [5] 98 % of control | [6] 107 % of control

COc1ccc(C2OC3=C(Nc4ccc(Cl)cc4N3)C2=O)c(OC)c1 (stereo unspecified)
inactive: dose: 0.94 mg/kg/injection, schedule: Q01DX005 (ip), vehicle: Klucel (hydroxypropylcellulose) (HPC) 99 % of control | dose: 1.88 mg/kg/injection, schedule: Q01DX005 (ip), vehicle: Klucel (hydroxypropylcellulose) (HPC) 91 % of control | dose: 3.75 mg/kg/injection, schedule: Q01DX005 (ip), vehicle: Klucel (hydroxypropylcellulose) (HPC) 95 % of control | dose: 15.0 mg/kg/injection, schedule: Q01DX005 (ip), vehicle: Klucel (hydroxypropylcellulose) (HPC) 91 % of control | dose: 30.0 mg/kg/injection, schedule: Q01DX005 (ip), vehicle: Klucel (hydroxypropylcellulose) (HPC) 92 % of control | [7] 90 % of control and 93 % of control

O=c1[nH]c2c([N+](=O)[O-])cc(Cl)cc2nc1/C=C(\O)c1ccc2ccccc2c1
inactive: [1] 98 % of control | [2] 90 % of control | [3] 99 % of control

CC(=O)SC1CC(=O)OC1=O (stereo unspecified)
inactive: [8] 100 % of control | [9] 105 % of control | [10] 96 % of control | [11] 105 % of control

Cc1cc(Cl)cnc1N
inactive: [9] 99 % of control | [10] 97 % of control | [11] 92 % of control

CC(=O)OCc1ccc(/C=c2/[nH]c(=O)/c(=C\c3ccc(COC(C)=O)o3)[nH]c2=O)o1
inactive: dose: 12.5 mg/kg/injection, schedule: Q01DX009 (ip), vehicle: distilled water + Tween-80 88 % of control | dose: 25.0 mg/kg/injection, schedule: Q01DX009 (ip), vehicle: distilled water + Tween-80 90 % of control | dose: 50.0 mg/kg/injection, schedule: Q01DX009 (ip), vehicle: distilled water + Tween-80 96 % of control | dose: 100.0 mg/kg/injection, schedule: Q01DX009 (ip), vehicle: distilled water + Tween-80 114 % of control | dose: 200.0 mg/kg/injection, schedule: Q01DX009 (ip), vehicle: distilled water + Tween-80 99 % of control

c1ccc2c(c1)SCC1COCOC21 (stereo unspecified)
inactive: [12] 100 % of control | [13] 103 % of control | [14] 98 % of control

Cc1cccc(NC(=O)Oc2ccc(C#N)cc2)c1
inactive: [1] 97 % of control | [2] 109 % of control | [3] 106 % of control

C=CCN1C(=O)c2cc(Cl)c(Cl)cc2C1=O
inactive: dose: 50.0 mg/kg/injection, schedule: Q01DX005 (ip), vehicle: saline with Tween-80 102 % of control | dose: 100.0 mg/kg/injection, schedule: Q01DX005 (ip), vehicle: saline with Tween-80 87 % of control | dose: 200.0 mg/kg/injection, schedule: Q01DX005 (ip), vehicle: saline with Tween-80 94 % of control

NC(CCCCNCC(N)C(=O)O)C(=O)O (stereo unspecified)
inactive: [9] 91 % of control | [10] 89 % of control | [11] 92 % of control

COC(=O)CS(=O)(=O)CCCCCS(=O)(=O)CC(=O)OC
inactive: [9] 97 % of control | [10] 106 % of control | [11] 99 % of control

CCOC(=O)C(NC(C)=O)(C(=O)OCC)c1ccc([N+](=O)[O-])cn1
inactive: dose: 25.0 mg/kg/injection, schedule: Q01DX009 (ip), vehicle: other 92 % of control | dose: 50.0 mg/kg/injection, schedule: Q01DX009 (ip), vehicle: other 90 % of control | dose: 100.0 mg/kg/injection, schedule: Q01DX009 (ip), vehicle: other 95 % of control | dose: 200.0 mg/kg/injection, schedule: Q01DX009 (ip), vehicle: other 95 % of control | dose: 400.0 mg/kg/injection, schedule: Q01DX009 (ip), vehicle: other 102 % of control

CCCCCCOc1cc(N)ccc1C(=O)O
inactive: dose: 100.0 mg/kg/injection, schedule: Q04DX002 (ip), vehicle: saline with Tween-80 98 % of control | dose: 200.0 mg/kg/injection, schedule: Q04DX002 (ip), vehicle: saline with Tween-80 100 % of control | dose: 400.0 mg/kg/injection, schedule: Q04DX002 (ip), vehicle: saline with Tween-80 92 % of control

CCC(c1ccccc1)(c1ccccc1)c1ccccc1
inactive: [12] 98 % of control | [13] 100 % of control | [14] 94 % of control

c1ccc2c(c1)ccc1c(-c3ccncc3)n[nH]c12
inactive: [4] 99 % of control | [5] 88 % of control | [6] 87 % of control

COC1(OC)C2C=CC1C1CC/C=C\CCC12 (stereo unspecified)
inactive: [4] 106 % of control | [5] 100 % of control | [6] 103 % of control

CCCCCCCCCC[N+](C)(C)CC(O)CO (stereo unspecified)
inactive: dose: 12.5 mg/kg/injection, schedule: Q01DX009 (ip), vehicle: saline 94 % of control | [8] 105 % of control | [9] 111 % of control

CCOc1ccc(-n2c(=O)c(N=Nc3ccccc3C)c(O)n(-c3ccc(Br)cc3)c2=S)cc1
inactive: dose: 100.0 mg/kg/injection, schedule: Q01DX001 (ip), vehicle: saline with Tween-80 98 % of control | dose: 200.0 mg/kg/injection, schedule: Q01DX001 (ip), vehicle: saline with Tween-80 92 % of control | dose: 400.0 mg/kg/injection, schedule: Q01DX001 (ip), vehicle: saline with Tween-80 105 % of control

COc1ccc2c(c1)C1CCN(C)CC1OC2=O (stereo unspecified)
inactive: dose: 12.5 mg/kg/injection, schedule: Q01DX009 (ip), vehicle: saline with Tween-80 92 % of control | dose: 25.0 mg/kg/injection, schedule: Q01DX009 (ip), vehicle: saline with Tween-80 98 % of control | [4] 100 % of control and 104 % of control

COc1ccc(C2NC(=S)NC(C)=C2C(N)=O)cc1 (stereo unspecified)
inactive: dose: 60.0 mg/kg/injection, schedule: Q01DX005 (ip), vehicle: Klucel (hydroxypropylcellulose) (HPC) 101 % of control | [7] 95 % of control | dose: 240.0 mg/kg/injection, schedule: Q01DX005 (ip), vehicle: Klucel (hydroxypropylcellulose) (HPC) 96 % of control
